Measurements: patent publication US8690865B2, “Methods and devices for thermal treatment” (Georgia Tech Research Corporation, priority 2004, dated 2014)
Where two headings read alike, the source gives them in different places.

Key:
[1] = skin permeability measurement in Franz diffusion cell after microheater microablation
Procedure: Microheater components are tested for use in ablation of stratum corneum and increasing barrier permeability and increased drug transport by assessing transport across cadaver skin by three different molecules. Calcein is a low molecular weight (623 Da) fluorescent molecule used to measure skin permeability by spectrofluorimetric assay and image transport pathways in skin by confocal microscopy. […] Insulin is a polypeptide (6 kDa) that will be used for comparison with in vivo studies involving insulin delivery to diabetic rats. To perform skin permeability measurements, cadaver epidermis is placed in a Franz diffusion cell at 37° C. and an array of microheaters is then positioned on the stratum corneum side and thermally activated to cause microablation. […] Every hour, or more frequently, 1 ml of receptor solution is sampled, and replaced with fresh saline, and fluorescence intensity is measured using calibrated spectrofluorometry and analyzed to determine rates of transdermal delivery.

[2] = in vivo transport into and across skin treated with thermal treatment device; design: species or system Sprague-Dawley hairless rat; details: hairless rat skin treated with thermal treatment device; brief exposure to dye or over an hour to calcein solution
Procedure: (§1) The in vivo skin model is a Sprague-Dawley hairless rat, a commonly used model for human skin permeability due to the similarity of hairless rat and human skin. For initial studies, rats ARE anesthetized by intraperitoneal injection of urethane (1000 mg/kg) and treated with a thermal treatment device of the present invention. The skin is exposed either briefly to a blue tissue marking dye to visualize the size and location of pores, or exposed for over an hour to a calcein solution to image the transdermal transport process. After sacrificing the animal, skin specimens are excised and prepared for histological examination by cryostat sectioning.

[3] = insulin delivery through micropores in streptozotocin-diabetic rats; type: in vivo, rat; details: treated skin area exposed to Humulin-R insulin solution
Procedure: as §1
For insulin delivery studies, rats are made diabetic by intravenous injection with 100 mg/kg streptozotocin, which produces diabetes the next day due to destruction of pancreatic islet cells. Under urethane anesthesia, skin is treated with a thermal treatment device of the present invention and the treated skin area is exposed to an Humulin-R insulin solution. Blood samples are collected by tail veil laceration over time to measure glucose concentration using a FreeStyle glucose monitor to determine pharmacodynamic response and to measure insulin concentration by radioimmunoassay to determine pharmacokinetic response, after which the animal is sacrificed.

transport across cadaver skin (measured in receptor solution) [1] | Compound | transport into micropores and across the epidermis (histological tissue sections) [2] | transport across cadaver skin (measured in receptor solution) ([1]; cadaver epidermis, Franz diffusion cell at 37° C., after microablation by microheater array, added individually to donor compartment) | blood glucose (pharmacodynamic response) [3] | insulin concentration in blood (radioimmunoassay, pharmacokinetic response) [3]
later measured in the receptor solution | O=C(O)CN(CC(=O)O)Cc1cc2c(cc1O)Oc1cc(O)c(CN(CC(=O)O)CC(=O)O)cc1C21OC(=O)c2ccccc21 [Calcein] | show transport of the molecules into the micropores and with time, transport across the epidermis |  |  | 
 | Insulin |  | later measured in the receptor solution | response to glucose control | insulin in the blood
